# Source: ChEMBL document CHEMBL5352490, “SAR investigation and optimization of benzimidazole-based derivatives as antimicrobial agents against Gram-negative bacteria” (Eur J Med Chem, 2023)
# Experiments:
# Escherichia coli [1] = experiment: Antibacterial activity against Escherichia coli tolC mutant incubated for 24 hrs by broth microdilution method; assay type: functional
# Pseudomonas aeruginosa [2] = experiment: Antibacterial activity against Pseudomonas aeruginosa ATCC 9027 incubated for 24 hrs in absence of colistin by broth microdilution method; assay type: functional
# Pseudomonas aeruginosa [3] = experiment: Synergistic antibacterial activity against Pseudomonas aeruginosa ATCC 9027 incubated for 24 hrs in presence of colistin by broth microdilution method; assay type: functional; also: test concentration or dose not given here
# Klebsiella pneumoniae [4] = experiment: Antibacterial activity against Klebsiella pneumoniae ATCC 1706 incubated for 24 hrs in absence of colistin by broth microdilution method; assay type: functional
# Acinetobacter baumannii [5] = experiment: Synergistic antibacterial activity against Acinetobacter baumannii ATCC 19606 incubated for 24 hrs in presence of colistin by broth microdilution method; assay type: functional; also: test concentration or dose not given here
# Klebsiella pneumoniae [6] = experiment: Synergistic antibacterial activity against Klebsiella pneumoniae ATCC 1706 incubated for 24 hrs in presence of colistin by broth microdilution method; assay type: functional; also: test concentration or dose not given here
# Escherichia coli [7] = experiment: Antibacterial activity against wild type Escherichia coli BW25113 incubated for 24 hrs in absence of colistin by broth microdilution method; assay type: functional
# Escherichia coli [8] = experiment: Synergistic antibacterial activity against wild type Escherichia coli BW25113 incubated for 24 hrs in presence of colistin by broth microdilution method; assay type: functional
# Acinetobacter baumannii [9] = experiment: Antibacterial activity against Acinetobacter baumannii ATCC 19606 incubated for 24 hrs in absence of colistin by broth microdilution method; assay type: functional
# Escherichia coli [10] = experiment: Bacteriostatic effect in Escherichia coli JW55031 assessed as log reduction in bacterial burden at 10 times MIC measured after 24 hrs by time kill assay; assay type: functional
# Escherichia coli [11] = experiment: Bacteriostatic effect in Escherichia coli JW55031 assessed as log reduction in bacterial count at 5 times MIC measured at 24 hrs by time kill assay; assay type: functional
# Escherichia coli [12] = experiment: Bacteriostatic effect in Escherichia coli JW55031 assessed as log reduction in bacterial count at 10 times MIC measured at 24 hrs by time kill assay; assay type: functional
# [13] = Cytotoxicity against African green monkey Vero cells assessed as reduction in cell viability incubated for 24 hrs by MTS assay; assay type: toxicity, cell-based; conditions: chlorocebus sabaeus
Compound,MIC (Escherichia coli [1]) [µg/mL],also measured
Cc1ccc(Cn2c(-c3cccc(NS(=O)(=O)c4ccc(Br)cc4)c3)nc3ccccc32)cc1,> 64,–
Cc1ccc(Cn2c(-c3cccc(NS(C)(=O)=O)c3)nc3ccc(C(=N)NO)cc32)cc1,> 64,–
Cc1ccc(Cn2c(-c3cccc(NS(C)(=O)=O)c3)nc3cc(Br)ccc32)cc1,> 64,–
Cc1ccc(Cn2c(-c3cccc(NS(=O)(=O)c4cccc([N+](=O)[O-])c4)c3)nc3ccccc32)cc1,2,–
Cc1ccc(Cn2c(-c3cccc(NS(=O)(=O)c4ccc(C)cc4)c3)nc3ccccc32)cc1,2,–
Cc1ccc(Cn2c(-c3cccc(NS(=O)(=O)C4CC4)c3)nc3ccccc32)cc1,1,–
Cc1ccc(Cn2c(-c3cccc(C(=N)N)c3)nc3ccccc32)cc1,32,–
Cc1ccc(Cn2c(-c3cccc(NS(=O)(=O)c4ccc(Cl)cc4)c3)nc3ccccc32)cc1,2,–
COc1ccc(S(=O)(=O)Nc2cccc(-c3nc4ccccc4n3Cc3ccc(C)cc3)c2)cc1OC,4,–
CCOC(=O)c1cccc2nc(-c3cccc(NS(C)(=O)=O)c3)n(Cc3ccc(C)cc3)c12,> 64,–
CS(=O)(=O)Nc1cccc(-c2nc3ccccc3n2Cc2ccc(C(=N)NO)cc2)c1,> 64,–
Cc1ccc(Cn2c(-c3cccc(NS(=O)(=O)c4ccc(-c5ccccc5)cc4)c3)nc3ccccc32)cc1,> 64,–
CCOC(=O)c1ccc2c(c1)nc(-c1cccc(NS(C)(=O)=O)c1)n2Cc1ccc(C)cc1,> 64,–
Cc1ccc(Cn2c(-c3cccc(NS(=O)(=O)c4ccc(N)cc4)c3)nc3ccccc32)cc1,> 64,–
CCOC(=O)c1ccc2nc(-c3cccc(NS(C)(=O)=O)c3)n(Cc3ccc(C)cc3)c2c1,> 64,–
Cc1ccc(Cn2c(-c3cccc(NS(C)(=O)=O)c3)nc3ccc(C#N)cc32)cc1,> 64,–
Cc1ccc(Cn2c(-c3cccc(NS(C)(=O)=O)c3)nc3cccc(C(=O)O)c32)cc1,> 64,–
Cc1ccc(Cn2c(-c3cccc(NS(=O)(=O)c4ccc5ccccc5c4)c3)nc3ccccc32)cc1,> 64,–
Cc1ccc(Cn2c(-c3cccc(NS(=O)(=O)c4ccc(C(C)(C)C)cc4)c3)nc3ccccc32)cc1,> 64,–
COc1ccc(S(=O)(=O)Nc2cccc(-c3nc4ccccc4n3Cc3ccc(C)cc3)c2)cc1,4,–
CS(=O)(=O)Nc1cccc(-c2nc3ccccc3n2Cc2ccc(-c3nnn[nH]3)cc2)c1,> 64,–
Cc1ccc(Cn2c(-c3cccc(NS(C)(=O)=O)c3)nc3cc(C(F)(F)F)ccc32)cc1,> 64,–
Cc1ccc(Cn2c(-c3cccc(NS(C)(=O)=O)c3)nc3cc(C(=N)NO)ccc32)cc1,> 64,–
Cc1ccc(Cn2c(-c3cccc(NS(=O)(=O)c4ccc(C(F)(F)F)cc4)c3)nc3ccccc32)cc1,> 64,–
Cc1ccc(Cn2c(-c3cccc(NS(=O)(=O)c4cccc(Br)c4)c3)nc3ccccc32)cc1,0.5,–
Cc1ccc(Cn2c(-c3cccc(NS(=O)(=O)c4ccc(F)c(Cl)c4)c3)nc3ccccc32)cc1,2,–
Cc1ccc(Cn2c(-c3cccc(NS(=O)(=O)c4ccccc4)c3)nc3ccccc32)cc1,1,–

Compound,MIC (Escherichia coli [1]) [µg/mL],also measured
CCCCCCCCCC(=O)N[C@@H](Cc1c[nH]c2ccccc12)C(=O)N[C@H](CC(N)=O)C(=O)N[C@@H](CC(=O)O)C(=O)N[C@@H]1C(=O)NCC(=O)N[C@@H](CCCN)C(=O)N[C@@H](CC(=O)O)C(=O)N[C@H](C)C(=O)N[C@@H](CC(=O)O)C(=O)NCC(=O)N[C@H](CO)C(=O)N[C@@H]([C@H](C)CC(=O)O)C(=O)N[C@@H](CC(=O)c2ccccc2N)C(=O)O[C@@H]1C,–,MIC (Pseudomonas aeruginosa [2]): > 128 µg/mL; MIC (Pseudomonas aeruginosa [3]): > 128 µg/mL; MIC (Klebsiella pneumoniae [4]): > 128 µg/mL; MIC (Acinetobacter baumannii [5]): > 128 µg/mL; MIC (Klebsiella pneumoniae [6]): > 128 µg/mL; MIC (Escherichia coli [7]): > 128 µg/mL; MIC (Escherichia coli [8]): > 128 µg/mL; MIC (Acinetobacter baumannii [9]): > 128 µg/mL
CCOC(=O)Nc1ccc2c(c1)nc(-c1cccc(NS(C)(=O)=O)c1)n2Cc1ccc(C)cc1,> 64,–
Cc1ccc(Cn2c(-c3cccc(NS(=O)(=O)c4ccccc4[N+](=O)[O-])c3)nc3ccccc32)cc1,1,–
CC(=O)NC[C@H]1CN(c2ccc(N3CCOCC3)c(F)c2)C(=O)O1 [LINEZOLID],8,–
Cc1ccc(Cn2c(-c3cccc(NS(C)(=O)=O)c3)nc3ccc(Br)cc32)cc1,> 64,–
GENTAMICIN,0.25,–
Cc1ccc(Cn2c(-c3cccc(-c4nnn[nH]4)c3)nc3ccccc32)cc1,8,–
Cc1ccc(Cn2c(-c3cccc(-c4ncon4)c3)nc3ccccc32)cc1,> 64,–
Cc1ccc(Cn2c(-c3cccc(NS(C)(=O)=O)c3)nc3ccccc32)cc1,2,–
Cc1ccc(Cn2c(-c3cccc(NS(=O)(=O)c4ccc(F)c(F)c4)c3)nc3ccccc32)cc1,1,–
CC(=O)Nc1ccc(S(=O)(=O)Nc2cccc(-c3nc4ccccc4n3Cc3ccc(C)cc3)c2)cc1,> 64,–
Cc1ccc(Cn2c(-c3cccc(NS(C)(=O)=O)c3)nc3ccc(C(=O)O)cc32)cc1,> 64,–
CS(=O)(=O)Nc1cccc(-c2nc3ccccc3n2Cc2ccc(-c3ncon3)cc2)c1,> 64,–
Cc1ccc(Cn2c(-c3cccc(NS(=O)(=O)c4cccc(Cl)c4)c3)nc3ccccc32)cc1,0.125,MIC (Pseudomonas aeruginosa [2]): > 64 µg/mL; log(activity) (Escherichia coli [10]): 0.4; log(activity) (Escherichia coli [11]): 2.54; MIC (Pseudomonas aeruginosa [3]): 16 µg/mL; MIC (Klebsiella pneumoniae [4]): > 64 µg/mL; MIC (Acinetobacter baumannii [5]): 4 µg/mL; MIC (Klebsiella pneumoniae [6]): 8 µg/mL; log(activity) (Escherichia coli [12]): 2.9; MIC (Escherichia coli [7]): > 64 µg/mL; MIC (Escherichia coli [8]): 16 µg/mL; MIC (Acinetobacter baumannii [9]): > 64 µg/mL; CC50 at 24 h [13]: > 128 µg/mL
CCOC(=O)Nc1ccc2nc(-c3cccc(NS(C)(=O)=O)c3)n(Cc3ccc(C)cc3)c2c1,> 64,–
Cc1ccc(Cn2c(-c3cccc(NS(=O)(=O)c4ccc([N+](=O)[O-])cc4)c3)nc3ccccc32)cc1,> 64,–
Cc1ccc(Cn2c(-c3cccc(C(=N)NO)c3)nc3ccccc32)cc1,> 64,–
Cc1ccc(Cn2c(-c3cccc(NS(C)(=O)=O)c3)nc3cc(C)ccc32)cc1,> 64,–
Cc1ccc(Cn2c(-c3cccc(NS(=O)(=O)c4cccc(N)c4)c3)nc3ccccc32)cc1,2,–
Cc1ccc(Cn2c(-c3cccc(NS(C)(=O)=O)c3)nc3cc(C#N)ccc32)cc1,> 64,–
Cc1ccc(Cn2c(-c3cccc(NS(C)(=O)=O)c3)nc3ccc(N)cc32)cc1,> 64,–
Cc1ccc(Cn2c(-c3cccc(NS(=O)(=O)c4ccc(OC(F)(F)F)cc4)c3)nc3ccccc32)cc1,> 64,–
CC[C@H]1OC(=O)[C@H](C)[C@@H](O[C@H]2C[C@@](C)(OC)[C@@H](O)[C@H](C)O2)[C@H](C)[C@@H](O[C@@H]2O[C@H](C)C[C@H](N(C)C)[C@H]2O)[C@](C)(O)C[C@@H](C)C(=O)[C@H](C)[C@@H](O)[C@]1(C)O [ERYTHROMYCIN],–,MIC (Pseudomonas aeruginosa [2]): > 64 µg/mL; MIC (Pseudomonas aeruginosa [3]): 8 µg/mL; MIC (Klebsiella pneumoniae [4]): 64 µg/mL; MIC (Acinetobacter baumannii [5]): 0.25 µg/mL; MIC (Klebsiella pneumoniae [6]): 4 µg/mL; MIC (Escherichia coli [7]): 32 µg/mL; MIC (Escherichia coli [8]): 2 µg/mL; MIC (Acinetobacter baumannii [9]): 8 µg/mL
Cc1ccc(Cn2c(-c3cccc(NS(C)(=O)=O)c3)nc3cc(N)ccc32)cc1,> 64,–
Cc1ccc(Cn2c(-c3cccc(NS(C)(=O)=O)c3)nc3ccc(C)cc32)cc1,> 64,–
Cc1ccc(Cn2c(-c3cccc(NS(=O)(=O)c4ccc(C(C)C)cc4)c3)nc3ccccc32)cc1,> 64,–
Cc1ccc(Cn2c(-c3cccc(NS(C)(=O)=O)c3)nc3cc(C(=O)O)ccc32)cc1,> 64,–
